A short description of data set [1]: Stability in the gut (incubation with homogenized rat stomach or intestine). The following applies: incubated with homogenized rat stomach (pH 1.0) or intestine (pH 7.4); read-out: t1/2 of decomposition in the presence of rat gut. The class given is in vitro ADME. Here is the method:
(§1) Pro-drugs were incubated for 2 h with homogenized rat stomach or intestine while the pH is kept at 1.0 or 7.4, respectively. Samples are taken at 30 min interval for the analysis of the pro-drug and GlcN. This procedure was used as a prerequisite to further tests described in Examples 6, 7 and 8. A compound with low stability under this condition was decided to be unsuitable for further test. […] Everted rat gut sacks are immersed in 80 μg/mL (GlcN equivalent) of GlucN HCl or GV-GluN HCl solution. The appearance of glucosamine each compound inside the sack (serosal) was measured. […] Gly-Val-COO-GlcN is GV-GlycN.

Data set [2] relates to adjuvant arthritis caused by Mycobacterium butyricum. As to the kind of experiment: Efficacy against adjuvant arthritis. The data set is classed as in vivo. To be noted: for preventing effect on emergence of adjuvant arthritis: daily doses from day 0, GlcN HCl 90 mg, GV-GlcN 30 mg glucosamine equivalent, FIG. 6; for paw thickness after treatment of established adjuvant arthritis: four days of daily doses from day 14, GlcN 90 mg/kg, GV-GlcN 30 mg/kg GlcN equivalent, FIG. 7. Here is the method:
Under anesthesia, rats were injected with 0.2 ml of 50 mg/ml Mycobacterium butyricum suspended in squalene in the base of the tail (day 0). Their paw thickness was measure daily. Within 12-14 days significant increases in paw thickness were noticed, indicative of the emergence if adjuvant arthritis. Repeated daily doses of drugs were administered either right after the time of Mycobacterium injection (to prevent emergence of arthritis) or after the appearance of arthritis (to treat arthritis). Animals were monitored for their arthritis status during the entire length of the experiment.
On day zero, Mycobacterium butyricum is injected to all rats along with daily doses of glucosamine, GV-GlnN or placebo. The placebo group develops severe AA but not the ones that received either treatment. Upon discontinuation of the treatments, AA emerges (FIG. 6).

A short description of data set [3]: Bioavailability in the rat (plasma GlcN AUC after oral dose). The class given is in vivo. The protocol:
Prodrugs or GlcN HCl or sulphate were administered to rats in single oral doses equivalent to a fix amount of GlcN. Plasma GlcN concentrations were measured using HPLC in serial sample collected over a period of time. The areas under plasma-concentration-time curves (AUC or relative bioavailability) were calculated and compared (FIGS. 5 and 5a).

The nature of data set [4]: Absorption through everted rat gut. The class given is in vitro ADME. Here is the method:
as §1
A mid line incision was made in the anesthetised rat abdomen, the intestine was exposed and five 10 cm segments of the jejunum are cut. In ice cold Krebs Henseleit buffer, the intestinal content are removed and each segment are everted over a glass rod, tied from one side, a polyethylene tube is inserted into the other side and tied. The segments are filled with buffer and incubated in a perfusion apparatus containing oxygenated Krebs Henseleit buffer at 37° C. The test compound was added to the mucosal (outer surface of the everted gut) and serial samples were collected from both sides. The percent of the movement from outside (mucosal) to inside (serosal) was measured and compared (FIG. 4). […]

A short description of data set [5]: Chemical stability (60° C. oven for 48 h). The class given is physicochemical. The following applies: 60° C. for 48 h; <96% considered unstable. Here is the method: Compounds were transferred into transparent glass vials and placed in 60° C. oven for 48 h. Compound with <96% stability are considered unstable.
For data set [6] the following is noted: oral administration, reference (23); cited from earlier work.

The source of these data is US8772227B2, “Glucosamine pro-drug” (priority 2011, dated 2014).

In the case of `CC(C)C(NC(=O)CN)C(=O)OCC1OC(O)C(N)C(O)C1O` (stereo not shown) [GV-GlcN, (5-amino-3,4,6-trihydroxyoxan-2-yl)methyl 2-(2-aminoacetamido)-3-methylbutanoate], the half-life in data set [1] was more than 16 h. Also, in data set [2], the “preventing effect on emergence of adjuvant arthritis” value is listed as “prevent the disease” and the “paw thickness after treatment of established adjuvant arthritis” value (“paw thickness after treatment” for short) was “significantly reduce the paw thickness”. Further, in data set [2] (listed as GV-GluN), the “paw thickness after treatment” value is recorded as “Significant (p>0.05) reduced paw thickness”. For the same molecule, the “area under the plasma glucosamine concentration-time curve compared with GlcN” value in data set [3] (110 mg/kg (GlcN equivalent), FIG. 5A, n=3-5/group) was “significantly greater than GlcN”. Further, the “mean AUC (bioavailability) of GlcN in rat plasma compared with GlcN HCl” value in data set [3] (oral, 110 mg GlcN equivalent, FIG. 5, AUC(0-4)) is “significantly and substantially greater”. Further, in data set [4] (60 minutes exposure, FIG. 4), the “stability after exposure to the gut (no conversion into glucosamine)” value was “greater than 96%”. The “transport across everted rat gut” value in data set [4] (mucosal to serosal) is given as approximately 80%. The “physicochemical stability (percent stable)” value in data set [5] is listed as more than 96%.
For `N[C@H]1C(O)O[C@H](CO)[C@@H](O)[C@@H]1O.N[C@H]1C(O)O[C@H](CO)[C@@H](O)[C@@H]1O.O=S(=O)(O)O` (stereo partly shown) [GlcN sulfate], the “AUC of GlcN after oral HCl versus sulphate salt” value in data set [6] is “equal AUC values”.
For the molecule `N[C@H]1C(O)O[C@H](CO)[C@@H](O)[C@@H]1O` (stereo partly shown) [GlcN, Glucosamine], in data set [2], the “preventing effect on emergence of adjuvant arthritis” value is recorded as “prevent the disease” and the “paw thickness after treatment” value is listed as “significantly reduce the paw thickness”. For the same molecule, the “paw thickness after treatment” value in data set [2] (listed as GlcN HCl) is “Significant (p>0.05) reduced paw thickness”.
